Experimental data published in patent US20260055106A1, “PARG INHIBITORY COMPOUND” (FORX THERAPEUTICS AG, priority 2021, published 2026).
Counter-ions that a name gives are not always drawn. Like-named read-outs stand apart in the source and are kept apart here.

Columns and labels:
[1] = tested on: NCI-H460; assay: Cellular viability assay (NCI-H460); assay type: cell-based; details: 96 hours incubation, Cell Titer-Glo, read-out: EC50 determined in NCIH-460 cells, Cellular viability assay
Experimental: (§1) NCI-H460 and MDA-MB-436 as PARG-inhibition sensitive cell lines, and U2OS as PARG-inhibition insensitive cell line, were plated at 1000 cells/well, 5000 cells/well and 2000 cells/well, respectively, in 96-well white plates with clear flat bottom. After 24 hours, the compounds were added with the Tecan digital dispenser (D300e), in duplicates. The outer wells of the plate were excluded. After 96 hours of incubation, 150 μl of the growth medium were removed and 50 μl of Cell Titer-Glo (Promega) were added per well. Following an incubation of 10 minutes, luminescence was read using a plate reader (Tecan) for NCI-H460 and U2OS cell lines, and a 2104 EnVision plate reader for MDA-MB-436. Averaged values of the samples were normalized to DMSO treated control samples. Curves were fit as % of the control vs. log of the compound concentration using a 4 parameter log-logistic function: […]

[2] = tested on: U2OS; assay: Cellular viability assay (U2OS); assay type: cell-based; details: Homo sapiens, 96 hours incubation, Cell Titer-Glo, read-out: EC50 determined in U2OS cells, Cellular viability assay
Experimental: as §1

[3] = target: T1, PARG (Homo sapiens, UniProt Q86W56); assay: Cellular PAR chain assay; assay type: cell-based; details: U2OS cells
T1 construct: endogenous in cells; host or cells: U2OS
T1 sequence (Q86W56 whole entry): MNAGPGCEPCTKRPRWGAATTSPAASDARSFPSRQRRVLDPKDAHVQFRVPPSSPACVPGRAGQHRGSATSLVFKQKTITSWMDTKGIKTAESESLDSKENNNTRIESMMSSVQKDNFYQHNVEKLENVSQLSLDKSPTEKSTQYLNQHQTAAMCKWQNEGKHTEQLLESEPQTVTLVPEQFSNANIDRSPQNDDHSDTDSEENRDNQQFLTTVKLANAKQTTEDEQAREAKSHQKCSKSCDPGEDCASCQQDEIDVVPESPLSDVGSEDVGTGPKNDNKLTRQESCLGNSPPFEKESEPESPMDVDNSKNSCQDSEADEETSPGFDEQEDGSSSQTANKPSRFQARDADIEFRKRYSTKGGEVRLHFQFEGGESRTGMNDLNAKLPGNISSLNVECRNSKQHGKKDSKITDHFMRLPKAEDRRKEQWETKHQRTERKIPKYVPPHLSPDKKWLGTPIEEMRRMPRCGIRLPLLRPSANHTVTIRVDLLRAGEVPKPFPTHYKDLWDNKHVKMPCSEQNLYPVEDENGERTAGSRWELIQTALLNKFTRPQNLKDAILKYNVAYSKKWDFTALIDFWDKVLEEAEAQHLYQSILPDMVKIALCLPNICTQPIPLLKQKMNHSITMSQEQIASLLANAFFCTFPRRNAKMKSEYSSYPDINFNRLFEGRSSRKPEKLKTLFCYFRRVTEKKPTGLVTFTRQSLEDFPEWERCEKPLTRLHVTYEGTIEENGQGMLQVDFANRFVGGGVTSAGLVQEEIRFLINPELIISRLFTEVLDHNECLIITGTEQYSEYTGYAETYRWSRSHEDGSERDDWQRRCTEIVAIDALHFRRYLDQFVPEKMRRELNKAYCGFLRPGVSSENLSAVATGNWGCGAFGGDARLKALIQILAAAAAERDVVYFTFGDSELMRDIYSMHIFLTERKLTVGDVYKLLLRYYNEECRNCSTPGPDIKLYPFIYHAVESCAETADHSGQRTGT
Experimental: The ability of compounds to inhibit PARG in response to DNA damage, was assessed with U2OS cells pretreated with the compounds for 1 hour, following a 1-hour treatment with or without the DNA alkylating agent temozolomide (TMZ). […] The cells were incubated for 2 hours at room temperature with a mouse monoclonal antibody against poly (ADP) ribose (PAR) polymer. The cells were washed and incubated with an anti-mouse Alexa-488 conjugated secondary antibody for 1 hour at room temperature. Propidium iodide staining was used to determine DNA content in the cells (staining at 4° C. overnight). The fluorescence intensity of the cells was assessed by flow cytometry (Cytoflex from Beckmann) and the percentage of PAR chain positive cells (gated in relation to TMZ+DMSO treated control) was determined. PAR chain positive cells % were fit against the concentration of the compound using a 4 parameter log-logistic function, generating PAR chain EC50 values: […]

[4] = tested on: MDA-MB-436; assay: Cellular viability assay (MDA-MB-436); assay type: cell-based; details: Homo sapiens, 96 hours incubation, Cell Titer-Glo, read-out: EC50 determined in MDA-MB-436 cells, Cellular viability assay
Experimental: as §1

[5] = target: T2, human PARG (Homo sapiens, UniProt Q86W56, A967T/C963S/D927K/H446G/I916T/L447S/L473S/M841I/N479S/R811K/S802A/S858P/T924D); assay: PARG enzymatic IC50 assay; assay type: biochemical; details: 2 hours incubation with enzyme; substrate ADP-ribose-pNP; absorbance 405 nm; read-out: IC50 determined in PARG enzymatic assay (PARG protein and 2 hours incubation)
T2 construct: human PARG (448-976 [H446G, L447S, L473S, N479S, S802A, R811K, M8411, S858P, 1916T, T924D, D927K, C963S, A967T]); 6His-TwinStrep (protease-cleavable) (N, cleaved yes); host or cells: E. coli BL21 (DE3)
T2 sequence (Q86W56 446-976 H446G/L447S/L473S/N479S/S802A/R811K/M841I/S858P/I916T/T924D/D927K/C963S/A967T): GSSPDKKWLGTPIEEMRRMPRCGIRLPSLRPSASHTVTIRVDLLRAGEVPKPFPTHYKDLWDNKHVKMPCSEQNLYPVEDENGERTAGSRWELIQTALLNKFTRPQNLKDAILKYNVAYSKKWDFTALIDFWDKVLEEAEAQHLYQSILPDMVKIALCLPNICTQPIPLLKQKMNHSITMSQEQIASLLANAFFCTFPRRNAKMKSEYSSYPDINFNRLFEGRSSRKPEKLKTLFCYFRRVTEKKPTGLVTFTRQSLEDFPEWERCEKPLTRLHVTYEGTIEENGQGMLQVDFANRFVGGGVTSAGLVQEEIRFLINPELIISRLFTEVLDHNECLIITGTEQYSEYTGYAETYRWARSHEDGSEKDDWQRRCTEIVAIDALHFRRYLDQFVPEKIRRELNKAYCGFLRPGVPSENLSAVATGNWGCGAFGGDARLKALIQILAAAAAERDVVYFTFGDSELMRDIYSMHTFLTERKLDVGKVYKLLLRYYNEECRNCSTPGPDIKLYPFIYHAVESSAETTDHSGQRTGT
Experimental: A codon optimized gene encoding human PARG (448-976 [H446G, L447S, L473S, N479S, S802A, R811K, M8411, S858P, 1916T, T924D, D927K, C963S, A967T]) was synthesized by Genscript, and cloned into pET15b (NcoI/BamHI) with an N-terminal, Thrombin protease cleavable 6His-TwinStrep tag. Expression of the protein in E. coli BL21 (DE3) was induced by addition of 0.2 mM IPTG to a shake flask culture grown to OD600=0.8 at 37° C. Growth was allowed to continue at 30° C. for a further 20 hours before harvesting by centrifugation and storage of the cell pellet at −80° C. […]
PARG enzyme as incubated with compound or vehicle (DMSO) for 15 minutes or 2 hours in a 384 well plate. After adding the PARG substrate ADP-ribose-pNP, the plate was read for absorbance intensity at 405 nm. The vehicle (DMSO) with high absorbance intensity represents no inhibition of enzymatic reaction while the low control (no enzyme) with low absorbance intensity represents full inhibition of enzymatic reaction. […]
The protocol that was used for enzyme reaction and detection is as follows: • 1. […] Read the plate on a plate reader (e.g., Spark Tecan).

[6] = Kinetic solubility assay; assay type: physicochemical; details: buffer, aqueous buffer, kinetic from dmso stock, pH 7.4, shake flask, room temperature, HPLC-UV
Experimental: The Kinetic solubility assay employs the shake flask method followed by HPLC-UV analysis. For exemplary compounds, the kinetic solubility was measured according to the following protocol: • 1. Samples were weighed and dissolved in 100% DMSO to make a stock solution of 10 mM. About 100 μL of stock solution is needed to cover this assay. • 2. Test compounds and controls (10 mM in DMSO, 10 μL/tube) were added into the buffer (490 μL/well) which were placed in a Mini-UniPrep filter. The buffer was prepared as the customer's requirement. • 3. The kinetic solubility samples were vortexed for 2 minutes. • 4. The solubility solutions were shaked in an orbital shaker for 24 hr at room temperature. • 5. 200 μL of each solubility solution were transferd into a 96-deep well for analysis when the samples were directly filtered by the syringeless filter device. • 6. The test compound concentration of the filtrate were determined using HPLC-UV. • 7. Three UV standard solutions were injected into HPLC from low to high concentrations, followed by testing of the K.S. supernatant. Testing samples were injected in duplicate.

[7] = tested on: MDA-MB-436 tumor cells; assay: Cell-derived xenograft (CDX) study, MDA-MB-436 xenograft model; assay type: in vivo, Mus musculus; details: BALB/c nude mice
Experimental: • Species: Mus musculus • Strain: BALB/c nude • Age: 6-9 weeks • Sex: Female • Body weight: 17-20 g • Animal supplier: Beijing Vital River Laboratory Animal Technology Co., Ltd • Certificate No: 20230209Abzz0619000498
The MDA-MB-436 tumor cells (ATCC, cat #HTB-130) were maintained in vitro as a monolayer culture in L-15 medium supplemented with 10% fetal bovine serum, 10 μg/mL Insulin, 16 μg/mL glutathione and 1% Antibiotic-Antimycotic at 37° C. in an atmosphere of 0% CO2 in air. The cells growing in an exponential growth phase were harvested and counted for tumor inoculation.
BALB/c nude female mice were inoculated subcutaneously at the right flank with MDA-MB-436 tumor cells (10×10^6/mouse) in 0.2 mL of PBS with Matrigel (1:1) for tumor development. The animals were randomized and the treatment was started on day 25 after tumor inoculation when the average tumor volume reached approximately 126 mm^3. Each group consisted of 10 tumor-bearing mice. The compound of formula (I) was administrated to the mice according to the predetermined regimen as shown in the experimental design table 3
Tumor sizes were measured twice weekly in two dimensions using a caliper, and the volumes were expressed in mm^3. The tumor sizes were then used for the calculations of TGI values.
TGI was calculated for each group using the formula: TGI (%)=[1−(Ti−T0)/(Vi−V0)]×100; Ti is the average tumor volume of a treatment group on a given day, T0 is the average tumor volume of the treatment group on the first day of treatment, Vi is the average tumor volume of the vehicle control group on the same day with Ti, and V0 is the average tumor volume of the vehicle group on the first day of treatment.
A one-way ANOVA was performed to compare the tumor volume among groups.

Row | EC50 ([1]; listed as 1b fraction B) [nM] | EC50 ([1]; Homo sapiens, NCI-H460, 96 h) [nM] | EC50 [2] [nM] | EC50 ([3]; with treatment of TMZ, read-out: EC50 determined in Cellular PAR chain assay (conditions with treatment of TMZ)) [nM] | EC50 ([3]; without treatment of TMZ, read-out: EC50 determined in Cellular PAR chain assay (conditions without treatment of TMZ)) [nM] | EC50 [4] [nM] | IC50 [5] [nM] | solubility kinetic at 24 h [6] [µM] | Structure (SMILES) | Tumor volume on day 28 ([7]; 100 mg/kg PO QD x 28 days, Mean ± SEM) [mm^3] | TGI ([7]; 100 mg/kg PO QD x 28 days, day 28) [%] | anti-tumor response ([7]; 100 mg/kg, MDA-MB-436 xenograft)
1 | 22 | 21 | > 2000 | – | – | – | – | – | C[C@H]1CN(c2cc(S(=O)(=O)NC3(C)CC3)cn3c(-c4nnc(C(F)F)s4)ncc23)C[C@H](C)N1 (single isomer, unassigned) [Example 1b] | – | – | –
2 | – | < 19 | 11900 | < 3 | < 3 | 17 | 11 | 152 | C[C@H]1CN(c2cc(S(=O)(=O)NC3(C)CC3)cn3c(-c4nnc(C(F)F)s4)ncc23)C[C@H](C)N1 [Example 1, 3-(5-(difluoromethyl)-1,3,4-thiadiazol-2-yl)-8-((3S,5S)-3,5-dimethylpiperazin-1-yl)-N-(1-methylcyclopropyl)imidazo[1,5-a]pyridine-6-sulfonamide formate] | 27 ± 9 | 118.20 | tumor regression seen in all mice
